Like-named read-outs stand apart in the source and are kept apart here.
Experiments:
[1] = Log D by shaking flask method (n-octanol/phosphate buffer); type: physicochemical; conditions: 37 °C
Method: An HPLC system (Shimadzu, Japan) was equipped with a LC-20AD binary pump system, a SIL-20AD auto sampler, a CBM-20A system controller, and a CTO-20A oven. Separation of MHO7 and IS from endogenous substances was carried out on an Agilent Zorbax XDB C18 column (5 μm, 250 × 4.6 mm, Agilent, Pal Alto, CA, USA), which was kept at 30 °C. The mobile phase was composed of 30% phase A (water) and 70% phase B (acetonitrile) with a flow rate of 1 mL·min^−1. The inject volume of the sample solution was 10 μL.
The phases of distilled water and n-octanol were saturated with each other by shaking for 48 h with 250 rpm in a shaking water bath prior to use. Solutions of MHO7 was prepared in concentration of 10 mM·L^−1 in n-octanol. Accurately measured amounts of the two solvents with necessary quantity of MHO7 were placed in a 5.0 mL centrifuge tube; then, the mixture was carried out at 250 rpm and designated temperature in the shaking water bath for 48 h to afford complete phase separation. The samples of both phases were collected at 0, 4, 8, 12, 24, 30, 36 and 48 h, diluted with methanol (1:1, V) and determined by HPLC with the detection wavelength of 234 nm. Each set of solvent systems for experimental logP/D value was the mean of the three determinations.

[2] = Stability in simulated gastric fluid (SGF); type: in vitro ADME; conditions: for percentage concentration remaining in SGF: at 8 h
Method: SGF was prepared with modifications according to Lee et al. (2012) by mixing 100 mL of distilled water with a pH value set to 2.0 with hydrochloric acid and 1 g pepsin solution (800–2000 U/mg of protein). SIF was produced according to USP specifications (Test Solutions, United States Pharmacopeia 35, NF 30, 2012). Monobasic potassium phosphate (0.68 g) was dissolved in 25 mL of water. Then, 7.7 mL of 0.2 M NaOH was added to adjust the pH to 6.8. To this, 1 g of pancreatin was added and shaken gently until dissolved and the volume adjusted to 100 mL with water. Pancreatin was added after adjusting the pH of the solution to 6.8 to avoid precipitation of the enzyme.
Aliquots (199 µL) of SGF and SIF were placed in 1.5 mL microcentrifuge tubes and incubated at 37 °C for 10 min in a water bath, respectively. Different concentrations of MHO7 (1 µL) were added to each of the above microcentrifuge tubes to start the reaction with being incubated at 37 °C at 250 rpm in a shaking water bath. The reaction was stopped by adding ice ACN (800 µL) to each tube at intervals of 0, 0.5, 1, 2, 4, 6, and 8 h. The samples were vortexed for 15 min and centrifuged at 4 °C and 15,000 rpm for 15 min. After centrifuging the supernatant layer was taken directly for LC-MS analysis. Each experiment was carried out in triplicate, and average values were plotted. QC samples were prepared in the same way of inactivating pepsin in SGF incubation system at the concentrations of 1, 0.1 and 0.01 μM·L^−1 for HQC, MQC and LQC, respectively.

[3] = Plasma pharmacokinetics after single oral dose; type: in vivo; conditions: mice plasma, single oral 500 mg·kg^−1, female mice
Method: Ninety female KM mice of 8–10 weeks of age (20–22 g) were divided randomly into 15 groups, and, after fasting for 12 h, the mice in other experiments were oral administrated at the dose of 500 mg·kg^−1 bw. About 500 μL blood samples were collected at 0.5, 1, 2, 3, 4, 5, 6, 8, 10, 12, 16, 20, 24, 30 and 36 h into heparinized tubes after the intragastric administration of MHO7. All blood samples were immediately centrifuged at 8000 g for 5 min and the resulting plasma was transferred and then processed as described in sample preparation for the analysis by LC-MS/MS. MHO7 levels in plasma were quantified by HPLC–MS/MS. The calibration curve was constructed by plotting the peak area ratio of MHO7 to the internal standard and the linearity was determined by weighted (1/x) linear regression analysis. The regression equation of the calibration curve was then used to calculate the concentration of MHO7 in the plasma. QC samples and standard curve series solutions were prepared in the same way of blank plasma. The concentrations of HQC, MQC, and LQC were 5, 0.5, and 0.05 μM·L^−1, respectively, and the concentrations of standard curve series solutions were 5, 2.5, 1, 0.5, 0.25, 0.1, 0.05, and 0.01 μM·L^−1.
Data for each group are presented as mean ± SD. Statistical significance of different formulations were measured by one-way analysis of variance (ANOVA) followed by the Tukey Kramer multiple comparison test, using SPSS software version 14.0 (SPSS, Chicago, IL, USA), and the statistical significance was expressed by a p-value of less than 0.05. The main pharmacokinetic parameters of MHO7 was fitted by the average mean of a group in each time point with the Phoenix WinNonLin software version 6.3 (Pharsight, Cary, NC, USA). The gut microbiome analysis was performed using the free online platform of Majorbio Cloud Platform (www.majorbio.com).

Structure (SMILES): CC(C)=C/C=C/[C@H](C)[C@H]1CC[C@]2(C)C[C@@H]3C(C)=CC(=O)[C@H]3/C(C=O)=C\C[C@@H]12 [MHO7, 6-epi-ophiobolin G]
- logD at 4 h ([1]; octanol/PBS pH 1.5, 4 h, read-out: Log P/D Value O/P (pH 1.5)): 1.29 ± 0.02
- logD at 8 h ([1]; octanol/PBS pH 1.5, 8 h, read-out: Log P/D Value O/P (pH 1.5)): 1.22 ± 0.04
- logD at 12 h ([1]; octanol/PBS pH 1.5, 12 h, read-out: Log P/D Value O/P (pH 1.5)): 1.13 ± 0.03
- logD at 24 h ([1]; octanol/PBS pH 1.5, 24 h, read-out: Log P/D Value O/P (pH 1.5)): 1.13 ± 0.02
- logD at 30 h ([1]; octanol/PBS pH 1.5, 30 h, read-out: Log P/D Value O/P (pH 1.5)): 1.12 ± 0.15
- logD at 36 h ([1]; octanol/PBS pH 1.5, 36 h, read-out: Log P/D Value O/P (pH 1.5)): 1.12 ± 0.03
- logD at 48 h ([1]; octanol/PBS pH 1.5, 48 h, read-out: Log P/D Value O/P (pH 1.5)): 1.12 ± 0.03
- logD at 4 h ([1]; octanol/PBS pH 5.0, 4 h, read-out: Log P/D Value O/P (pH 5.0)): 1.15 ± 0.02
- logD at 8 h ([1]; octanol/PBS pH 5.0, 8 h, read-out: Log P/D Value O/P (pH 5.0)): 1.03 ± 0.05
- logD at 12 h ([1]; octanol/PBS pH 5.0, 12 h, read-out: Log P/D Value O/P (pH 5.0)): 0.95 ± 0.03
- logD at 24 h ([1]; octanol/PBS pH 5.0, 24 h, read-out: Log P/D Value O/P (pH 5.0)): 0.95 ± 0.04
- logD at 30 h ([1]; octanol/PBS pH 5.0, 30 h, read-out: Log P/D Value O/P (pH 5.0)): 0.95 ± 0.03
- logD at 36 h ([1]; octanol/PBS pH 5.0, 36 h, read-out: Log P/D Value O/P (pH 5.0)): 0.93 ± 0.03
- logD at 48 h ([1]; octanol/PBS pH 5.0, 48 h, read-out: Log P/D Value O/P (pH 5.0)): 0.93 ± 0.02
- logD at 4 h ([1]; octanol/PBS pH 7.4, 4 h, read-out: Log P/D Value O/P (pH 7.4)): 1.39 ± 0.03
- logD at 8 h ([1]; octanol/PBS pH 7.4, 8 h, read-out: Log P/D Value O/P (pH 7.4)): 1.37 ± 0.05
- logD at 12 h ([1]; octanol/PBS pH 7.4, 12 h, read-out: Log P/D Value O/P (pH 7.4)): 1.31 ± 0.03
- logD at 24 h ([1]; octanol/PBS pH 7.4, 24 h, read-out: Log P/D Value O/P (pH 7.4)): 1.29 ± 0.02
- logD at 30 h ([1]; octanol/PBS pH 7.4, 30 h, read-out: Log P/D Value O/P (pH 7.4)): 1.27 ± 0.04
- logD at 36 h ([1]; octanol/PBS pH 7.4, 36 h, read-out: Log P/D Value O/P (pH 7.4)): 1.26 ± 0.05
- logD at 48 h ([1]; octanol/PBS pH 7.4, 48 h, read-out: Log P/D Value O/P (pH 7.4)): 1.26 ± 0.01
- percentage concentration remaining in SGF ([2]; MHO7 added at 0.05 mM·L^−1, 37 °C): 76.19 ± 0.99%
- percentage concentration remaining in SGF ([2]; initial addition 0.5 mM·L^−1, 37 °C): 80.2 ± 3.15%
- stability in SGF ([2]; under the concentration of 5 mM·L^−1): stable
- AUC ([3]; KM, mouse): 10500 ng·h/mL
- Cmax ([3]; KM, mouse): 1380 ng/mL
- MRT ([3]; KM, mouse): 8.76 h
- half-life ([3]; KM, mouse): 6.97 h
- k el ([3]; KM, mouse, read-out: Lambda_z (converted)): 2.78e-05 s⁻¹
- Tmax ([3]; female, KM, mouse, plasma, po, 500 mg/kg): ~8 h
- V/F [3]: 479.02 L/kg

Source: article PMC6950057, “Toxicity, Pharmacokinetics, and Gut Microbiome of Oral Administration of Sesterterpene MHO7 Derived from a Marine Fungus” (Marine Drugs, 2019)
